As usually defined, the melting point is the temperature, or range, at which the solid turns liquid.

Structures are written as SMILES. A value given as a limit tells only on which side of the number the result lay.

Take `COc1cc2[nH]c(=O)c(-c3csc(-c4cccnc4)n3)c(N)c2cc1OC`: the melting point is > 250 °C. To `COc1cc2ncc(C#N)c(Nc3ccc(O)cc3C)c2cc1OC` belongs > 250 °C; to `Cc1cc(-c2nnc3c4ccccc4c(OCc4cnn(C)c4)nn23)no1`, 212 to 213 °C; to `Nc1cc(-n2cccc2)ccc1Nc1cccc(-n2ccnc2)c1`, 207 to 212 °C. The same measure for `CCC(=O)N[C@@H](C)C(=O)N1CCC[C@H]1C(=O)NC(C)C`: 173 to 175 °C; for `CN(C)C(=S)SC(C[N+](=O)[O-])c1ccccc1Cl` (centres undefined): 102 to 104 °C. To `COc1ccc(OCCCCCCCc2cc(C)no2)c([N+](=O)[O-])c1` belongs 51 °C; to `O=C(O)c1cnc2cc(F)c(F)cc2c1`, 290 °C. In the case of `CC(C)(CC(=O)c1ccc(Cl)c(Cl)c1)C(=O)O`, the melting point was in the range of 137 to 138 °C.

Regarding `Cc1nnsc1C(=O)Nc1ccc(-n2nc(-c3nccs3)cc2C#N)cc1`, the melting point is 230 °C. To `CCOC(=O)CN(C)C(=O)CC1=C(n2nc(-c3c(-c4ccccc4)nn4ccccc34)ccc2=O)CCCC1` belongs 56 to 60 °C. On to `O=C(O)c1cccc(-c2ccc(Cl)c(C(=O)NCC34CC5CC(CC(C5)C3)C4)c2)c1`, for which the melting point fell in the range of 255 to 257 °C. The same measure for `COc1nsc(S(C)(=O)=O)c1C#N`: 167 to 168 °C; for `CC(=O)N1CCN=C1CC(c1ccccc1)c1ccccc1`: 104 to 106 °C; for `CCOC(=O)Nc1nc(C)c(-c2nc3ccccc3c(=O)n2-c2cccc(C)c2)s1`: 210 to 211 °C.

For `Nc1nc(F)nc2nc[nH]c12`, the melting point is > 300 °C. To `COc1cccc([C@H]2O[C@H](CC(=O)Nc3cc(CCC(=O)O)ccc3OCCCc3ccccc3)C(=O)N(CC(C)(C)CO)c3ccc(Cl)cc32)c1OC` belongs 162 to 165 °C; to `Cc1cc(-c2cncc(OC3SCC(O)C(O)C3O)c2)ccn1` (centres undefined), 120 °C; to `CCCC(CCC)CCCC1COCCN1CCCCCO` (centres undefined), 59 to 60 °C. The same measure for `CCCCc1c(/C=C/C(=O)O)ccc2cc(OC)ccc12`: 163 to 164 °C. Turning to `C[C@]1(CN2CCN(C(=O)c3ccc(Cl)cc3)CC2)Cn2cc([N+](=O)[O-])nc2O1`, the melting point is 173 to 174 °C. `Cc1nc(Sc2cc(C(=O)O)c3ccccc3n2)sc1CC(=O)O` registered a melting point of 206 to 208 °C. In turn, `COC(=O)c1ccc(NC(=O)c2ccccc2-c2ccccc2)cc1` showed a melting point of 160 to 161 °C. `COc1cccc2c1CC[C@@H](O)[C@@H]2N1CCCC1` (relative stereo) displayed a melting point of 113 to 115 °C. The same measure for `O=C(O)c1ncn2c1CN=C(c1ccccc1)c1cc(Br)ccc1-2`: > 250 °C; for `CCCCc1nc(C(F)(F)C(F)(F)F)c(CO)n1Cc1ccc(-c2ccccc2C(=O)O)cc1`: 190 to 191 °C. The same measure for `O=C(Nc1ccc2nc(S)[nH]c2c1)C(=O)N1CCC(Cc2ccc(F)cc2)CC1`: 286 to 288 °C. For `O=[N+]([O-])c1ccc2c(c1)C[C@H]1CSC(=S)N1C2`, the melting point was found to be 220 °C.

Compound `CCCCc1ccc(NC2=NCCS2)cc1` registered a melting point of 73 to 75 °C.

In turn, `O=Cc1cn(-c2ccccn2)nc1-c1ccc([N+](=O)[O-])o1` returned a melting point of 191 to 192 °C.

For the compound `CCOC(=O)CCCCOc1ccc(-c2nc(N3CCOCC3)c3sc(CN4CCN(S(C)(=O)=O)CC4)cc3n2)cc1`, the melting point was in the range of 110 to 114 °C.

For `O=C1Nc2c(ccc3c2CCCC3)SC1CCCN1CCN(c2ccc(F)cc2)CC1` (centres undefined), the melting point was 145 to 147 °C. To `CN1CC=C(C2=C(C#N)C(c3cccc(C#N)c3Br)c3c[nH]nc3N2)CC1` (centres undefined) belongs 233 °C; to `CNc1nc(-c2ccc(SC)cc2)nc(SC)c1C(=O)Nc1ccc(C)cc1`, 228 to 230 °C. `COC(=O)CC(SC(C)=O)C(CC(C)C)C(=O)NC1CCCCCCCCCCNC1=O` (centres undefined) came in with a melting point of 213 to 216 °C. The same measure for `CCc1cc2[nH]c(=O)cc(Cl)c2c(CC)n1`: 172 to 174 °C; for `COc1cc2c(cc1Nc1ncc(Cl)c(Nc3ccccc3S(=O)(=O)N(C)C)n1)CCN(CC(=O)N(C)C)CC2`: 218 to 225 °C; for `Cc1c(Cc2ccccc2)c(=O)n(C)c2cc(OCc3nnn[nH]3)cc(OCc3nnn[nH]3)c12`: 250 to 253 °C. To `CC(C)(C)Sc1c(CC(C)(C)C(=O)O)n(Cc2ccc(Cl)cc2)c2ccc(-c3ccccc3)cc12` belongs 245 to 246 °C. Take `COc1ccc(C(=O)c2ccccn2)cc1CCl`: the melting point was 92 to 94 °C. On to `O=C1CCC(n2cnc3cccc(Cl)c3c2=O)C(=O)N1` (centres undefined), for which the melting point was in the range of 308 to 310 °C. The same measure for `COc1cc([N+](=O)[O-])ccc1-c1cncs1`: 125 to 128 °C. `CC1(C)Oc2ccc(C(=O)CO)cc2[C@H](NC(=O)c2ccc(F)c(Cl)c2)[C@@H]1O` yielded a melting point of 200 °C. To `COc1nc(C)c(N2CCCn3c2nc2c(OC)ccc(C(OC(F)F)C(F)(F)F)c23)c(C)n1` (centres undefined) belongs 201 to 203 °C; to `CCCC12CCC3C4CCC(=O)C=C4CCC3C1CCC2(C)O` (centres undefined), 134 to 136 °C. The same measure for `CC(SC1COC(c2ccc(C(=O)Nc3ccc(C#N)cc3F)cc2)OC1)C(O)(Cn1cncn1)c1ccc(F)cc1F` (centres undefined): 136 °C; for `CCn1c(Oc2cccc(N3CCC(O)CC3)c2)nnc1[C@@H](C)NS(=O)(=O)c1ccc(Cl)c(Cl)c1`: 168 to 170 °C; for `COc1cc(OCC(=O)O)c(C)cc1SCCc1ccc(-c2ccc(C(F)(F)F)cc2)cc1`: 169 to 171 °C. To `CCOC(=O)COCC1CCCN(C(=O)c2cnc(NC(=N)N)s2)C1` (racemic) belongs 156 °C; to `CCOC(=O)C1CC(=O)C(NC(C)=O)=C(O)C1` (centres undefined), 112 to 114 °C. In turn, `CN=NNc1ccc(C)cc1` gave a melting point of 77 to 80 °C.

Take `COC(=O)c1c(C(=O)OC)c2n(c1C)Cc1c(c3ccccc3n1C)C2`: the melting point was 240 to 241 °C. To `Cc1ccc2ccccc2c1NC1COC(=O)C1` (centres undefined) belongs 92 to 94 °C; to `O=[N+]([O-])c1cc(C(F)(F)F)cc(C(F)(F)F)c1S(=O)(=O)Oc1ccccc1`, 83 to 84 °C; to `CCCN(CCC)Cc1cnc(-c2ncn3c2CN(C)C(=O)c2c-3ccc(F)c2Cl)o1`, 110 to 112 °C. The same measure for `CCOC(=O)c1c(OC(C)=O)c2ccccc2c2nc3ccccc3nc12`: 195 to 196 °C; for `CCOCCOc1nc2c(c3ccccc13)c1cc(Cl)ccc1n2C`: 93.5 to 95.5 °C. On to `CCS(=O)(=O)c1nn2c(-c3ccc(OC)cc3)nnc2c2ccccc12`, for which the melting point was in the range of 210 to 213 °C. To `Cc1cccc(C(=O)c2ccc(F)cc2)n1` belongs 53 to 54 °C.

As for `CC(c1ccc(C=Cc2ccccc2)o1)N(O)C(N)=O` (centres undefined), the melting point is 140 °C. `CN(O)C(=O)C(C)(C)Cc1ccc2c(c1)C(=O)c1ccccc1CO2` yielded a melting point of 192 to 194 °C. The same measure for `N#Cc1ccc(NCC(F)(F)F)cc1C(F)(F)F`: 132 to 134 °C; for `Cc1ncc2cc(-c3c(Cl)cccc3Cl)c(NS(C)(=O)=O)nc2n1`: 212 to 213 °C.

In turn, `c1ccc(-c2cc3c(ccc4ccccc43)o2)cc1` registered a melting point of 140 to 144 °C.

As for `Nc1cccc(Cn2c(-c3ccc(C4=CC=CNC4)cc3)ccc2-c2ccccc2Cl)n1`, the melting point was in the range of 163 to 166 °C. The same measure for `Cc1cc(-c2nc3ccc(F)cc3s2)ccc1N`: 203 to 205 °C; for `S=C1CSc2cc(Cl)ccc2N1`: 202 to 204 °C. The same measure for `CC(C)c1ccc(O)c(C(C)C)c1NC(=O)CN1CCN(CCSc2nc3ccccc3o2)CC1`: 96 to 98 °C; for `CCOc1cccc(-c2cnn3c(-c4cccc(NC(=O)CC(C)C)c4)ccnc23)c1`: 156 to 158 °C; for `COC(=O)NNC(=O)CCC1CCCCC1`: 113 °C. Compound `CCCCCCCCn1sc(Cl)c(Cl)c1=O` gave a melting point of 44 to 47 °C. To `CCCCS(=O)(=O)NC1Cc2ccc(-c3ccc(=O)[nH]n3)cc2C1` (centres undefined) belongs 195 to 196 °C; to `O=c1c2cc(F)c(Cl)nc2n(-c2cccc(C(F)(F)F)c2)c(=O)n1OCc1ccccc1`, 207 to 208 °C.

`CC(C)(O)c1nnc(-c2ccc3occ(-c4cc(F)ccc4F)c3c2)o1` came in with a melting point of 155 to 156 °C.

For the compound `O=C1c2ccccc2C(=O)N1CCCCI`, the melting point was 85 to 87 °C. The same measure for `O=C(O)Cc1ccc(OCCNC(=O)[C@@H]2Cc3ccccc3N2S(=O)(=O)c2ccc(Oc3ccc(F)cc3)cc2)cc1`: 65 °C; for `CN(C1CC(C)(C)Oc2ccc(OCc3ccccc3)cc21)S(C)(=O)=O` (centres undefined): 114 to 116 °C; for `Fc1ccc(Br)c2ccsc12`: 47 to 48 °C. To `COCOc1ccc(-c2ncc3ncc(Cl)cc3n2)cc1` belongs > 268 °C. As for `CCOc1cc(CBr)ccc1C(=O)O`, the melting point lay in the range of 64 to 66 °C. Take `Oc1ccc(Oc2ccc(Cl)cc2Cl)cc1`: the melting point came out at 82 °C. To `CCON=C(C(N)=O)C(=O)OC` belongs 68 to 71 °C; to `CCOc1nn(Cc2ccnc(OCc3nc(-c4ccco4)oc3C)c2)cc1CCC(=O)O`, 138 to 139 °C. To `CN(C)CCn1c(=O)c2ccc([N+](=O)[O-])cc2c2cnc3cc4c(cc3c21)OCO4` belongs 111 to 112 °C. Compound `NC(=O)CC(=S)N1CCCC1` gave a melting point of 110 to 120 °C.

Consider `CS(=O)(=O)N(c1cc(-c2ncc(C(F)(F)F)cc2Cl)ccc1Cl)S(C)(=O)=O`, for which the melting point lay in the range of 230 to 231 °C.

`O=c1ccoc2cc(OCCn3ccnc3)ccc12`: the melting point is 131 to 133 °C. `CC(C)(C)c1ccc(C(=O)Nc2cn3cc(C(F)(F)F)ccc3n2)cc1` gave a melting point of 234 to 235 °C. The same measure for `Cn1cc(C(=O)NCc2ccc(Cl)cc2)c(=O)c2cc(CCl)ccc21`: 241 to 242 °C.

For the origin of these results see a melting point compilation (Tetko et al.; mined from patent text by program, amines drawn as free bases though some values may be those of a salt).
